What was measured:
Format in all cases: in vivo
[1] = system: Zm chloroplastic ALT-3-02 maize plants; assay: Tribenuron-methyl tolerance of maize plants, damage degree after spraying; conditions: 72 g ai/ha (4-fold field concentration)
Description: (§1) The damage degree caused by the herbicide was measured for each plant according to the plant growth status 3 days after spraying (3 DAT), 7 days after spraying (7 DAT), 14 days after spraying (14 DAT) and 21 days after spraying (21 DAT), respectively: considering a growth status equivalent to that of the untreated plants as having a damage degree of 0%; considering conditions of leaves being partially chlorotic and yellow but substantially not affecting the plant normal growth as having a damage degree of 50%; and considering the whole plant being purple and dying as having a damage degree of 100%. There were 2 strains in Zm cytoplasmic ALT-1-02 maize plants in total (S13 and S14), 2 strains in Zm chloroplastic ALT-1-02 maize plants in total (S15 and S16), 2 strains in Zm cytoplasmic ALT-2-02 maize plants in total (S17 and S18), 2 strains in Zm chloroplastic ALT-2-02 maize plants in total (S19 and S20), 2 strains in Zm cytoplasmic ALT-3-02 maize plants in total (S21 and S22), 2 strains in Zm chloroplastic ALT-3-02 maize plants in total (S23 and S24), and 1 strain in wild-type maize plants (CK2) in total; and 10-15 plants were selected from each strain and tested.

[2] = system: Zm chloroplastic ALT-2-02 maize plants; assay: as above; conditions: 72 g ai/ha (4-fold field concentration)
Description: as §1

[3] = system: Zm cytoplasmic ALT-3-02 maize plants; assay: as above; conditions: 72 g ai/ha (4-fold field concentration)
Description: as §1

[4] = system: transgenic maize plants (ALT-1, ALT-2 and ALT-3); assay: Tribenuron-methyl tolerance of transgenic maize plants, overall conclusion; conditions: 72 g ai/ha
Description: as §1

[5] = system: wild-type Arabidopsis thaliana plants; assay: Herbicide tolerance of Arabidopsis thaliana plants, sprayed, resistance classes counted 14 days after spraying
Excerpt: T1 transformants were initially selected from the background of untransformed seeds using a glufosinate selection scheme. About 40000 T1 seeds were screened, and 380 T1 positive transformants (PAT gene) were identified with a transformation efficiency of about 0.95%. The plants that were transformed with the recombinant expression vector DBN100632 were Arabidopsis thaliana plants having an ALT-1-01 nucleotide sequence located in the cytoplasm introduced (At cytoplasmic ALT-1-01), and the plants that were transformed with the recombinant expression vector DBN100631 were Arabidopsis thaliana plants having an ALT-1-01 nucleotide sequence located in the chloroplast introduced (At chloroplastic ALT-1-01); the plants that were transformed with the recombinant expression vector DBN100634 were Arabidopsis thaliana plants having an ALT-2-01 nucleotide sequence located in the cytoplasm introduced (At cytoplasmic ALT-2-01), and the plants that were transformed with the recombinant expression vector DBN100633 were Arabidopsis thaliana plants having an ALT-2-01 nucleotide sequence located in the chloroplast introduced (At chloroplastic ALT-2-01); and the plants that were transformed with the recombinant expression vector DBN100636 were Arabidopsis thaliana plants having an ALT-3-01 nucleotide sequence located in the cytoplasm introduced (At cytoplasmic ALT-3-01), and the plants that were transformed with the recombinant expression vector DBN100635 were Arabidopsis thaliana plants having an ALT-3-01 nucleotide sequence located in the chloroplast introduced (At chloroplastic ALT-3-01).
(§2) Plants were counted for the resistance situations 14 days after spraying: those having a consistent growth status with the blank solvent (water) group after 14 days were classified as highly resistant plants, those having a bolting height less than ½ of that of the blank solvent (water) group after 14 days were classified as moderately resistant plants, those still not capable of bolting after 14 days were classified as poorly resistant plants, and those dead after 14 days were classified as non-resistant plants. Since each Arabidopsis thaliana T1 plant was an independent transformation event, a significant difference in individual T1 responses could be expected at a given dose.
as §2, with “situation” for “situations”

[6] = system: transformed Arabidopsis thaliana T1 plants (ALT-1, ALT-2 and ALT-3); assay: Herbicide tolerance of transgenic Arabidopsis thaliana T1 plants, overall conclusion; conditions: transgenic Arabidopsis thaliana T1 plants; 18 g ai/ha
Excerpt: as §2
as §2, with “situation” for “situations”

[7] = maize strain S23 (Zm chloroplastic ALT-3-02)
[8] = maize strain S24 (Zm chloroplastic ALT-3-02)
[9] = maize strain S19 (Zm chloroplastic ALT-2-02)
[10] = maize strain S20 (Zm chloroplastic ALT-2-02)
[11] = maize strain S21 (Zm cytoplasmic ALT-3-02)
[12] = maize strain S22 (Zm cytoplasmic ALT-3-02)
[13] = wild-type, sprayed at 1-fold field concentration, 14 days after spraying

## COC(=O)c1ccccc1S(=O)(=O)NC(=O)N(C)c1nc(C)nc(OC)n1 [tribenuron-methyl, methyl 2-[N-(4-methoxy-6-methyl-1,3,5-triazin-2-yl)-N-methylaminoformamidosulfonyl]benzoate]
[1]; [7]
  Average damage % 3DAT: 0%
  Average damage % 7DAT: 0%
  Average damage % 14DAT: 0%
  Average damage % 21DAT: 0%
[1]; [8]
  Average damage % 3DAT: 0%
  Average damage % 7DAT: 0%
  Average damage % 14DAT: 0%
  Average damage % 21DAT: 0%
[2]; [9]
  Average damage % 3DAT: 0%
  Average damage % 7DAT: 0%
  Average damage % 14DAT: 0%
  Average damage % 21DAT: 0%
[2]; [10]
  Average damage % 3DAT: 0%
  Average damage % 7DAT: 0%
  Average damage % 14DAT: 0%
  Average damage % 21DAT: 0%
[3]; [11]
  Average damage % 3DAT: 3%
  Average damage % 7DAT: 0%
  Average damage % 14DAT: 0%
  Average damage % 21DAT: 0%
[3]; [12]
  Average damage % 3DAT: 5%
  Average damage % 7DAT: 0%
  Average damage % 14DAT: 0%
  Average damage % 21DAT: 0%
[4]
  herbicide tolerance conferred by thifensulfuron hydrolase (in words): a high level of tribenuron-methyl herbicide tolerance
[5]; wild-type Arabidopsis thaliana plants, 18 g ai/ha
  herbicide tolerance (in words): none of the wild-type Arabidopsis thaliana plants was tolerant
[5]; [13]
  Highly resistant (number of plants): 0
  Moderately resistant (number of plants): 0
  Non-resistant (number of plants): 32
  Poorly resistant (number of plants): 0
[6]
  herbicide tolerance conferred by thifensulfuron hydrolase (in words): conferred tribenuron-methyl herbicide tolerance
